For the test, the target named is T1, DBC-1/ERα interaction (Homo sapiens, UniProt P03372).
T1 sequence (P03372 1-595): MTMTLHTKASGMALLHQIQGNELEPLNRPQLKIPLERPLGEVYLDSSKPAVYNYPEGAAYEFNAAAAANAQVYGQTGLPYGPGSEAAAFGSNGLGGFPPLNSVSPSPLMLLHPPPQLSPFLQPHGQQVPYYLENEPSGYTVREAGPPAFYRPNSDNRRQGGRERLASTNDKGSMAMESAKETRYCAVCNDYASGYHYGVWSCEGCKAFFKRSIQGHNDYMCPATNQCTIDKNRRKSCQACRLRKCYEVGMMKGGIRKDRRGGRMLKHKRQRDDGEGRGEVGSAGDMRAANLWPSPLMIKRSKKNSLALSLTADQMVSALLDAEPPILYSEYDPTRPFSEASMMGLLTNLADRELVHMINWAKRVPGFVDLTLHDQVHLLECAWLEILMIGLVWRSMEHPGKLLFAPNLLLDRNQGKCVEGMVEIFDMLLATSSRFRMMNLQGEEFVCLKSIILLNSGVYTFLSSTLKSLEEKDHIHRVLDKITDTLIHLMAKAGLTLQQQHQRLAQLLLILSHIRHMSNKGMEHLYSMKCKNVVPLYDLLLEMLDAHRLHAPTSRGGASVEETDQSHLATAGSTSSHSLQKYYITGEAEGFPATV
The following applies: MCF-7 and BG-1 cells, hormone-free medium; E2 10^−7 M, 4-OHT 10^−6 M, ICI 10^−7 M; one hour. From the text: Results are representative of at least three independent experiments.

The text below walks through data of patent US7807383B2, “Diagnosing and treating hormone resistant cancers” (Board of Regents, The University of Texas System, priority 2007, dated 2010).

With `C[C@]12CC[C@@H]3c4ccc(O)cc4C[C@@H](CCCCCCCCC[S+]([O-])CCCC(F)(F)C(F)(F)F)[C@H]3[C@@H]1CC[C@@H]2O` (stereo partly shown) [ICI 182,780], the “effect on DBC-1/ERα interaction (co-immunoprecipitation)” value is listed as “disrupted the DBC-1/ERα interaction”.
